Drawing on patent US20260306491A1, “EGFR INHIBITOR FOR TREATING CANCERS COMPRISING ATYPICAL EGFR MUTATIONS” (ORIC Pharmaceuticals, Inc., priority 2023, published 2026), this text covers solubility, Moisture uptake and Unbound brain concentration for 2 compounds.

Where a name gives a salt, the structure may show the parent alone. Where only a bound is given, the exact number is not on record here.

Data set [1] in a line: Solubility screening of malonate salt of Compound I in various solvents at RT. The format is physicochemical. The protocol: The solubility of the malonate salt of Compound I as prepared according to Example 2 in various solvents at RT was measured. The malonate salt of Compound I (approximately 2 mg) was added to a 3-mL glass vial. The solvent was then added stepwise (50/50/200/200/500/1000 μL) into the vial until the solids were dissolved visually or a total volume of 2 mL was reached.

A short description of data set [2]: Moisture uptake by dynamic vapor sorption (DVS). Format: physicochemical. As to conditions: 25° C./80% relative humidity. The protocol:
DVS was measured via a SMS (Surface Measurement Systems) DVS Intrinsic.
The relative humidity at 25° C. was calibrated against deliquescence point of LiCl, Mg(NO3)2 and KCl.
Freebase Compound I was stirred with an equimolar amount of malonic acid in acetone at RT for 14.5 hrs. The slurry was subjected to vacuum drying at 50° C. for about 6 hrs. The malonate salt of Compound I was analyzed by XRPD, DSC, TGA, ^1H NMR, and DVS. […] As shown in the TGA graph, a weight loss of about 0.7% up to 130° C. was observed.
Freebase Compound I was stirred with an equimolar amount of glycolic acid in acetone at RT for 2 days, followed by vacuum drying at 50° C. for 2 hrs. The glycolate salt of Compound I was analyzed by XRPD, DSC, TGA, ^1H NMR, and DVS. […] As shown in the TGA graph, a weight loss of about 1.3% up to 120° C. was observed.

A short description of data set [3]: Biodistribution in plasma and brain after single oral dose in female CB17 SCID mice. Format: in vivo. Particulars: mouse, oral 50 mg/kg, 8 h. The protocol: Female non-tumor bearing Fox Chase CB17 SCID mice were orally administered a single dose as specified in Table B1.
Brain tissues were excised and plasma was collected from all the animals receiving Compound I, or tucatinib at 1 hour, 4 hours, and 8 hours post-administration. Tucatinib was used as a reference agent. Tucatinib is a clinically approved therapy for HER2 positive breast cancer patients with brain metastases. The harvested brains were rinsed in ice-cold phosphate-buffered saline and weighed. All plasma and brain samples were stored at approximately −80° C. until thawed for LC-MS/MS analysis.
Prior to analysis, brain tissues were homogenized 1:5 with phosphate buffer. Average free brain-to-free plasma ratio (Kp,uu) was calculated from individual mice by using total concentration values determined in the brain and plasma at individual time points, or by calculating the area under the curve (AUC) and converting the values to free concentration (or AUC) with in vitro binding parameters determined in the brain (fu,b) and plasma (fu,p) as follows:
Kp,uu=Brain Concentration (or AUC)*fu,b/Plasma Concentration (or AUC)*fu,p.
Free fraction in the brain (fu,b) and in plasma (fu,p) was determined with equilibrium dialysis as follows: The brain tissue homogenate or plasma from the mice were spiked to yield a final concentration of 1 μM Compound I, or 5 μM tucatinib. Compound I and tucatinib were incubated in equilibrium dialysis plate on a shaking incubator at 37° C. with 5% CO2 at 450 rpm for 8 hours and 24 hours, respectively. Following the incubation, aliquots of the matrix and the buffer samples were sampled and the concentration of Compound I, or tucatinib were determined.
where fu,b,d is fraction unbound determined with 20% brain homogenate.

For `C=CC(=O)Nc1cc(Nc2cc(N3OCC[C@@H]3c3cc(F)cc(F)c3)ncn2)c(OC)cc1N1CCC(N2CCN(C3CC3)CC2)CC1` [malonate salt of Compound I], the solubility in data set [1] (Water, RT) was below 1200 µg/mL; in data set [1] (organic solvent or mixture, 1,4-Dioxane, RT), 2100 to 7000 µg/mL; in data set [1] (organic solvent or mixture, 2-MeTHF, RT), 1100 to 2200 µg/mL; in data set [1] (organic solvent or mixture, ACN, RT), 6000 to 18000 µg/mL; in data set [1] (organic solvent or mixture, Acetone, RT), 1100 to 2200 µg/mL; in data set [1] (organic solvent or mixture, Anisole, RT), below 900 µg/mL. The solubility in data set [1] (organic solvent or mixture, CHCl3, RT) was above 40000 µg/mL; in data set [1] (organic solvent or mixture, CPME, RT), below 1100 µg/mL; in data set [1] (organic solvent or mixture, DCM, RT), 20000 to 40000 µg/mL; in data set [1] (organic solvent or mixture, DMSO, RT), above 40000 µg/mL; in data set [1] (organic solvent or mixture, EtOAc, RT), below 1000 µg/mL; in data set [1] (organic solvent or mixture, EtOH, RT), 1900 to 6300 µg/mL. Moreover, the solubility in data set [1] (organic solvent or mixture, IPA, RT) is below 1200 µg/mL; in data set [1] (organic solvent or mixture, IPAc, RT) it was below 900 µg/mL; in data set [1] (organic solvent or mixture, MIBK, RT), below 1200 µg/mL; in data set [1] (organic solvent or mixture, MTBE, RT), below 1000 µg/mL; in data set [1] (organic solvent or mixture, MeOH, RT), above 46000 µg/mL; in data set [1] (organic solvent or mixture, THF, RT), 2100 to 7000 µg/mL. Moreover, the solubility was below 1000 µg/mL in data set [1] (organic solvent or mixture, Toluene, RT) and below 1100 µg/mL in data set [1] (organic solvent or mixture, n-Heptane, RT). The compound also yielded a Moisture uptake in data set [2] of 0.19%.
Take `Cc1cc(Nc2ncnc3ccc(NC4=NC(C)(C)CO4)cc23)ccc1Oc1ccn2ncnc2c1` [tucatinib, reference compound]: the Unbound brain concentration entry in data set [3] is reported as “below the limit of quantitation (BLOQ)”.
